Patent publication US20250215029A1 (Recludix Pharma, Inc., priority 2022, published 2025)

Target: T1, pY705-STAT3 in PBMC (Homo sapiens, UniProt P40763)
T1 construct: Cryopreserved Peripheral Blood Mononuclear Cells (PBMC) are from AllCells; host or cells: cryopreserved PBMC
Experiment: MSD-pSTAT-PBMC Assay (pSTAT3, IL-6 stimulated)
Assay type: cell-based
Conditions: PBMC, compound 3 hrs, then 10 ng/mL IL-6 for 10 min; Table 115; read-out: STAT3
Outline: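 Thawed human PBMC rested overnight in IMDM/10% FBS, then got compound for 3 hrs before a 10 min cytokine pulse: 1 ng/mL IL-4 for pSTAT6, 10 ng/mL IL-6 for pSTAT3. Lysates went to MSD sandwich capture on total STAT6 or STAT3 with phospho-specific detection. IC50 came from background-subtracted, DMSO-normalized signal.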

T1 sequence (P40763 whole entry): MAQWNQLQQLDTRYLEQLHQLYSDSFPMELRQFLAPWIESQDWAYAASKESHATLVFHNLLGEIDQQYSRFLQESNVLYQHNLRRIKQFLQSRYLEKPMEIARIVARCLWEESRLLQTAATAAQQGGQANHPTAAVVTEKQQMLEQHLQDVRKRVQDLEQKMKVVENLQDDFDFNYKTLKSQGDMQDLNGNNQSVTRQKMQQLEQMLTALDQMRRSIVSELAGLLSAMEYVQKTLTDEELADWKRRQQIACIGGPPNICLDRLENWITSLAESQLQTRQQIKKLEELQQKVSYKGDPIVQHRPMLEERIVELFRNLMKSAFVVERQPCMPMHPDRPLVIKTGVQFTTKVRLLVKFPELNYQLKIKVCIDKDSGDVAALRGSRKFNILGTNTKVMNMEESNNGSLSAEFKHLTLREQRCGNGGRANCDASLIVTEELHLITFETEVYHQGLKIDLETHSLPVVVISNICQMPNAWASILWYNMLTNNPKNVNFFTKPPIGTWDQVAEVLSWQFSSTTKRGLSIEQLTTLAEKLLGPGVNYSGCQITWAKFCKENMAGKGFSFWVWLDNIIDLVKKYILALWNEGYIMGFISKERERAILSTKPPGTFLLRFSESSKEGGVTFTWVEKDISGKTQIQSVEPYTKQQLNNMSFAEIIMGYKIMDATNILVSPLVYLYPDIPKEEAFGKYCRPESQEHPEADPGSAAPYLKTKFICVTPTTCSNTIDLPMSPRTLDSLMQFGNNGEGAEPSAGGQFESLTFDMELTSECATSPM

Question: Cc1ccncc1C1CN(C(=O)[C@@H]2CC[C@@H]3CCC[C@H](NC(=O)c4cc5cc(CP(=O)(N[C@@H](C)C(=O)OC(C)C)Oc6ccccc6)ccc5s4)C(=O)N32)C1 (stereo partly drawn) [Compound 298, isopropyl (((2-(((3S,6S,9aS)-3-(3-(4-methylpyridin-3-yl)azetidine-1-carbonyl)-5-oxooctahydro-1H-pyrrolo[1,2-a]azepin-6-yl)carbamoyl)benzo [b]thiophen-5-yl)methyl)(phenoxy)phosphoryl)-L-alaninate] was tested. Which IC50 did it give?
Answer: 100 to 1000 nM

Question: How did the IC50 turn out when CCCOC(=O)[C@H](C)NP(=O)(Cc1ccc2sc(C(=O)N[C@H]3CCC[C@H]4CC[C@@H](C(=O)N5CC(c6cnccc6N6CC(OC)C6)C5)N4C3=O)cc2c1)Oc1ccccc1 (stereo partly drawn) [Compound 300, propyl (((2-(((3S,6S,9aS)-3-(3-(4-(3-methoxyazetidin-1-yl)pyridin-3-yl)azetidine-1-carbonyl)-5-oxooctahydro-1H-pyrrolo[1,2-aJazepin-6-yl)carbamoyl)benzo [b]thiophen-5-yl)methyl)(phenoxy)phosphoryl)-L-alaninate] was run?
Answer: < 100 nM

Question: Which IC50 does the source give for CCCOC(=O)[C@H](C)NP(=O)(Cc1ccc2sc(C(=O)N[C@H]3CCC[C@H]4CC[C@@H](C(=O)N5CC(c6cnccc6N6CC[C@H]6COC)C5)N4C3=O)cc2c1)Oc1ccccc1 (stereo partly drawn) [Compound 301, propyl (((2-(((3S,6S,9aS)-3-(3-(4-((S)-2-(methoxymethyl)azetidin-1-yl)pyridin-3-yl)azetidine-1-carbonyl)-5-oxooctahydro-1H-pyrrolo[1,2-a]azepin-6-yl)carbamoyl)benzo [b]thiophen-5-yl)methyl)(phenoxy)phosphoryl)-L-alaninate] here?
Answer: < 100 nM

Question: Which IC50 does the source give for CCCOC(=O)[C@H](C)NP(=O)(Oc1ccccc1)C(F)(F)c1ccc2sc(C(=O)N[C@H]3CCC[C@H]4CC[C@@H](C(=O)N5CC(c6cccnc6)C5)N4C3=O)cc2c1 (stereo partly drawn) [Compound 306, propyl ((difluoro(2-(((3S,6S,9aS)-5-oxo-3-(3-(pyridin-3-yl)azetidine-1-carbonyl)octahydro-1H-pyrrolo[1,2-a]azepin-6-yl)carbamoyl)benzo [b]thiophen-5-yl)methyl)(phenoxy)phosphoryl)-L-alaninate] here?
Answer: 1000 to 3000 nM

Question: How did the IC50 turn out when CCCOC(=O)[C@H](C)NP(=O)(Cc1ccc2sc(C(=O)N[C@H]3CCC[C@H]4CC[C@@H](C(=O)N5CC(c6cccnc6)C5)N4C3=O)cc2c1)Oc1ccccc1 (stereo partly drawn) [Compound 307, propyl (((2-(((3S,6S,9aS)-5-oxo-3-(3-(pyridin-3-yl)azetidine-1-carbonyl)octahydro-1H-pyrrolo[1,2-a]azepin-6-yl)carbamoyl)benzo [b]thiophen-5-yl)methyl)(phenoxy)phosphoryl)-L-alaninate] was run?
Answer: > 3000 nM

Question: How did the IC50 turn out when CCCOC(=O)[C@H](C)NP(=O)(Cc1ccc2sc(C(=O)N[C@H]3CCC[C@H]4CC[C@@H](C(=O)N[C@H]5CN(C(C)=O)C[C@@H]5F)N4C3=O)cc2c1)Oc1ccccc1 (stereo partly drawn) [Compound 308, propyl (((2-(((3S,6S,9aS)-3-(((3S,4S)-1-acetyl-4-fluoropyrrolidin-3-yl)carbamoyl)-5-oxooctahydro-1H-pyrrolo[1,2-a]azepin-6-yl)carbamoyl)benzo [b]thiophen-5-yl)methyl)(phenoxy)phosphoryl)-L-alaninate] was run?
Answer: > 3000 nM

Question: With CCCOC(=O)[C@H](C)NP(=O)(Cc1ccc2sc(C(=O)N[C@H]3CCC[C@H]4CC[C@@H](C(=O)N[C@H]5CN(C(C)=O)C[C@H]5F)N4C3=O)cc2c1)Oc1ccccc1 (stereo partly drawn) [Compound 309, propyl (((2-(((3S,6S,9aS)-3-(((3S,4R)-1-acetyl-4-fluoropyrrolidin-3-yl)carbamoyl)-5-oxooctahydro-1H-pyrrolo[1,2-a]azepin-6-yl)carbamoyl)benzo [b]thiophen-5-yl)methyl)(phenoxy)phosphoryl)-L-alaninate] as the compound, how does the IC50 read?
Answer: > 3000 nM

Question: CCCOC(=O)[C@@H]1CCCN1P(=O)(Cc1ccc2sc(C(=O)N[C@H]3CCC[C@H]4CC[C@@H](C(=O)N5CC(c6cccnc6)C5)N4C3=O)cc2c1)N1CCC[C@H]1C(=O)OCCC [Compound 310, dipropyl (((2-(((3S,6S,9aS)-5-oxo-3-(3-(pyridin-3-yl)azetidine-1-carbonyl)octahydro-1H-pyrrolo[1,2-a]azepin-6-yl)carbamoyl)benzo [b]thiophen-5-yl)methyl)phosphoryl) (S)-di-L-prolinate] was tested. Which IC50 did it give?
Answer: 100 to 1000 nM

Question: For CCCOC(=O)CC(C)NP(=O)(Cc1ccc2sc(C(=O)N[C@H]3CCC[C@H]4CC[C@@H](C(=O)N5CC(c6cccnc6)C5)N4C3=O)cc2c1)Oc1ccccc1 (stereo partly drawn) [Compound 311, propyl 3-((((2-(((3S,6S,9aS)-5-oxo-3-(3-(pyridin-3-yl)azetidine-1-carbonyl)octahydro-1H-pyrrolo[1,2-a]azepin-6-yl)carbamoyl)benzo [b]thiophen-5-yl)methyl)(phenoxy)phosphoryl)amino) butanoate], which IC50 is on record?
Answer: > 3000 nM

Question: For CCCOC(=O)[C@H](C)NP(=O)(Oc1ccccc1)C(C)(F)c1ccc2sc(C(=O)N[C@H]3CCC[C@H]4CC[C@@H](C(=O)N5CC(c6cccnc6)C5)N4C3=O)cc2c1 (stereo partly drawn) [Compound 313, propyl ((1-fluoro-1-(2-(((3S,6S,9aS)-5-oxo-3-(3-(pyridin-3-yl)azetidine-1-carbonyl)octahydro-1H-pyrrolo[1,2-a]azepin-6-yl)carbamoyl)benzo [b]thiophen-5-yl)ethyl)(phenoxy)phosphoryl)-L-alaninate], which IC50 is on record?
Answer: 1000 to 3000 nM

Question: How did the IC50 turn out when CCCCOC(=O)[C@@H]1CC(F)(F)CN1P(=O)(Oc1ccccc1)C(F)(F)c1ccc2sc(C(=O)N[C@H]3CCC[C@H]4CC[C@@H](C(=O)N5CC(c6cccnc6)C5)N4C3=O)cc2c1 (stereo partly drawn) [Compound 323, butyl (2S)-1-((difluoro(2-(((3S,6S,9aS)-5-oxo-3-(3-(pyridin-3-yl)azetidine-1-carbonyl)octahydro-1H-pyrrolo[1,2-a]azepin-6-yl)carbamoyl)benzo [b]thiophen-5-yl)methyl)(phenoxy)phosphoryl)-4,4-difluoropyrrolidine-2-carboxylate] was run?
Answer: > 3000 nM

Question: CCOC(=O)[C@H](Cc1ccccc1)NP(=O)(Cc1ccc2sc(C(=O)N[C@H]3CCC[C@H]4CC[C@@H](C(=O)N5CC(c6cccnc6)C5)N4C3=O)cc2c1)Oc1ccccc1 (stereo partly drawn) [Compound 389, ethyl (((2-(((3S,6S,9aS)-5-oxo-3-(3-(pyridin-3-yl)azetidine-1-carbonyl)octahydro-1H-pyrrolo[1,2-a]azepin-6-yl)carbamoyl)benzo [b]thiophen-5-yl)methyl)(phenoxy)phosphoryl)-L-phenylalaninate] was tested. Which IC50 did it give?
Answer: 100 to 1000 nM

Question: CC(C)C[C@H](NP(=O)(Cc1ccc2sc(C(=O)N[C@H]3CCC[C@H]4CC[C@@H](C(=O)N5CC(c6cccnc6)C5)N4C3=O)cc2c1)Oc1ccccc1)C(=O)OCc1ccccc1 (stereo partly drawn) [Compound 390, benzyl (((2-(((3S,6S,9aS)-5-oxo-3-(3-(pyridin-3-yl)azetidine-1-carbonyl)octahydro-1H-pyrrolo[1,2-a]azepin-6-yl)carbamoyl)benzo [b]thiophen-5-yl)methyl)(phenoxy)phosphoryl)-L-leucinate] was tested. Which IC50 did it give?
Answer: 100 to 1000 nM

Question: Which IC50 does the source give for CC(C)OC(=O)[C@@H]1CCCN1P(=O)(Cc1ccc2sc(C(=O)N[C@H]3CCC[C@H]4CC[C@@H](C(=O)N5CC(c6cccnc6)C5)N4C3=O)cc2c1)Oc1ccccc1 (stereo partly drawn) [Compound 391, isopropyl (((2-(((3S,6S,9aS)-5-oxo-3-(3-(pyridin-3-yl)azetidine-1-carbonyl)octahydro-1H-pyrrolo[1,2-a]azepin-6-yl)carbamoyl)benzo [b]thiophen-5-yl)methyl)(phenoxy)phosphoryl)-L-prolinate] here?
Answer: 1000 to 3000 nM

Question: For COC[C@H](NP(=O)(Cc1ccc2sc(C(=O)N[C@H]3CCC[C@H]4CC[C@@H](C(=O)N5CC(c6cccnc6)C5)N4C3=O)cc2c1)Oc1ccccc1)C(=O)OC(C)C (stereo partly drawn) [Compound 392, isopropyl O-methyl-N-(((2-(((3S,6S,9aS)-5-oxo-3-(3-(pyridin-3-yl)azetidine-1-carbonyl)octahydro-1H-pyrrolo[1,2-a]azepin-6-yl)carbamoyl)benzo [b]thiophen-5-yl)methyl)(phenoxy)phosphoryl)-L-serinate], which IC50 is on record?
Answer: 100 to 1000 nM

Question: With COCCOC(=O)[C@H](C)NP(=O)(Cc1ccc2sc(C(=O)N[C@H]3CCC[C@H]4CC[C@@H](C(=O)N5CC(c6cccnc6)C5)N4C3=O)cc2c1)Oc1ccccc1 (stereo partly drawn) [Compound 393, 2-methoxyethyl (((2-(((3S,6S,9aS)-5-oxo-3-(3-(pyridin-3-yl)azetidine-1-carbonyl)octahydro-1H-pyrrolo[1,2-a]azepin-6-yl)carbamoyl)benzo [b]thiophen-5-yl)methyl)(phenoxy)phosphoryl)-L-alaninate] as the compound, how does the IC50 read?
Answer: 100 to 1000 nM

Question: C[C@H](NP(=O)(Cc1ccc2sc(C(=O)N[C@H]3CCC[C@H]4CC[C@@H](C(=O)N5CC(c6cccnc6)C5)N4C3=O)cc2c1)Oc1ccccc1)C(=O)OCc1ccccc1 (stereo partly drawn) [Compound 394, benzyl (((2-(((3S,6S,9aS)-5-oxo-3-(3-(pyridin-3-yl)azetidine-1-carbonyl)octahydro-1H-pyrrolo[1,2-a]azepin-6-yl)carbamoyl)benzo [b]thiophen-5-yl)methyl)(phenoxy)phosphoryl)-L-alaninate] was tested. Which IC50 did it give?
Answer: < 100 nM

Question: How did the IC50 turn out when CC(C)OC(=O)C(C)(C)NP(=O)(Cc1ccc2sc(C(=O)N[C@H]3CCC[C@H]4CC[C@@H](C(=O)N5CC(c6cccnc6)C5)N4C3=O)cc2c1)Oc1ccccc1 (stereo partly drawn) [Compound 395, isopropyl 2-methyl-2-((((2-(((3S,6S,9aS)-5-oxo-3-(3-(pyridin-3-yl)azetidine-1-carbonyl)octahydro-1H-pyrrolo[1,2-a]azepin-6-yl)carbamoyl)benzo [b]thiophen-5-yl)methyl)(phenoxy)phosphoryl)amino) propanoate] was run?
Answer: 100 to 1000 nM

Question: For O=C(N[C@H]1CCC[C@H]2CC[C@@H](C(=O)N3CC(c4cccnc4)C3)N2C1=O)c1cc2cc(CP(=O)(N[C@H]3CCOC3=O)Oc3ccccc3)ccc2s1 (stereo partly drawn) [Compound 398, phenyl P-((2-(((3S,6S,9aS)-5-oxo-3-(3-(pyridin-3-yl)azetidine-1-carbonyl)octahydro-1H-pyrrolo[1,2-a]azepin-6-yl)carbamoyl)benzo [b]thiophen-5-yl)methyl)-N-((S)-2-oxotetrahydrofuran-3-yl)phosphonamidate], which IC50 is on record?
Answer: > 3000 nM
